Each structure is given as a SMILES string.

This note sets out measurements from patent US9862713B2, “Substituted bicyclic heteroaryl compounds as RXR agonists” (CONNEXIOS LIFE SCIENCES PVT. LTD., priority 2014, dated 2018).

Series [1] has as its system MIA PaCa-2 cells. Put plainly: Cell death (DNA fragmentation) in MIA PaCa-2 cells. Type of series: cell-based. The protocol:
Caspase-3 activity was measured using its ability to cleave its substrate (Ac-DEVD-R110). Increased Caspase-3 activity would lead to higher release of fluorescent R110 which was measured at 485 nm excitation and 530 nm emission. Activity of caspase-3 (as nano-moles of R110 released) was normalized to total cellular protein. […] Cell death was measured by increased levels of DNA fragments as per manufacturer's protocol (Roche) and was normalized to total cellular DNA. Data are represented as % of control.

The subject of series [2] is DIO mice. Put plainly: Compound 40 with exercise on metabolic profile in DIO mice; exercise endurance (tread mill) test. In kind it is in vivo, male C57BL/6J mice. The protocol: Exercise endurance test or tread mill test (TMT): Exercise endurance test was accomplished on a motor treadmill at a low to moderate intensity of 5-20 cm/sec as maximal running speed with an intensity of 0.2 mA shock and one degree of inclination. The animals were subjected for TMT till exhaustion and different observations like distance traveled (cm), time spent on shock zone (sec), number of shocks, total time (min) were measured for all the mice in different groups.
Six week old male C57BL/6J mice were selected, acclimatized for a period of 1 week, Animals were assigned to either chow (10% kcal from fat) or high fat diet (HFD) (D12492; 60% kcal from fat), Research Diets, Inc., New Jersey, USA. After 11 weeks of the diet intervention, the HFD fed animals were assigned to specific treatment groups based upon body weight, glucose AUC during OGTT, fasting and fed blood glucose and fasting TG. The lean control mice (n=10) were fed with normal chow diet while the treatment group (n=10) and HFD Control (n=10), with and without exercise training, with high fat diet throughout the experimental period. Treatment group received Compound 40 with and without exercise training, at a dose of 10 mg/kg b.wt, once daily, po as suspension in 1% MC (methyl cellulose) as vehicle. Lean control and HFD controls animals were administered with vehicle. Exercise training was accomplished on a motor treadmill at a low to moderate intensity of 5-20 cm/sec as maximal running speed with an intensity of 0.2 mA shock and one degree of inclination. The animals were adapted to this procedure 5 days a week and different observations like distance traveled (cm), time spent on shock zone (sec), number of shocks, total time (min) will be measured for all the mice in different groups. Weekly body weight & daily feed consumption was recorded. The blood collected from tail vein was subjected for estimation of glucose and TG. OGTT was performed in 6 h fasted mice with 2 g/kg, of oral glucose challenge after 4 and 8 weeks of treatment. Then animals were euthanized and necropsied, the liver was excised immediately, weighed and taken to estimate liver triglyceride (TG). Different adipose depots were separated and weighed.

Series [3] has as its system HL-60 promyelocytic leukemia cell line. Put plainly: HL-60 differentiation (NBT reduction). In kind it is cell-based. The settings on record: 72 h culture. The protocol: Progression of promyelocytic leukemia can be abrogated by their differentiation. […] In order to estimate the differentiating ability of compound-40, HL-60 promyelocytic leukemia cell line was used as an in vitro model of the disease. HL-60 cells were cultured for 72 h as either control or under treatment as mentioned. After 72 h of culture, cells were exposed to nitro blue tetrazolium (NBT) solution containing phorbol myristate acetate (PMA) for 1 h at 37° C. Differentiated cells have increased oxidative burst potential which reduces NBT. Levels of reduced NBT were measured at 540 nm absorption.

For series [4], the system named is astrocytes. The experiment in a line: Astrocytes treated with PMA and LPS: ROS levels and inflammation markers. In kind it is cell-based. As to conditions: 48 h. The protocol: Furthermore, cultured astrocytes were treated with phorbol-12-myristate-13-acetate (PMA) and Lipopolysaccharides (LPS) alone or with test molecule for 48 h to measure ROS levels. To evaluate the effect on inflammation markers, astrocytes were treated with PMA and test molecule for 48 h.

Series [5] has as its system DIO mice. The experiment in a line: Effect of RXR agonist on DIO mice (high fat diet). Type of series: in vivo, male C57BL/6J mice. The protocol: Six week old male C57BL/6J mice were selected, acclimatized for a period of 1 week, Animals were assigned to either chow (10% kcal from fat) or high fat diet (HFD) (D12492; 60% kcal from fat), Research Diets, Inc., New Jersey, USA. Animals were housed in polypropylene cages and maintained at 23±1° C. at 60±10% humidity and 12 hour cycles of light and dark with free access to feed and water (ad libitum). After 11 weeks of the diet intervention, the HFD fed animals were assigned to specific treatment groups based upon body weight, glucose AUC during OGTT, fasting and fed blood glucose and fasting TG. The lean control mice (n=10) were fed with normal chow diet while the treatment group (n=10) and HFD Control (n=10) with high fat diet throughout the experimental period. Treatment group received Compound 40 at a dose of 5-20 mg/kg b.wt, once daily, po as suspension in 1% MC (methyl cellulose) as vehicle. Lean control and HFD controls animals were administered with vehicle.
Weekly body weight & daily feed consumption was recorded. The blood collected from tail vein was subjected for estimation of glucose and TG using Co-agucheck TG strip. OGTT was performed in 6 h fasted mice with 2 g/kg, of oral glucose challenge after 9 weeks of treatment.
Measurement of Thermogenesis: Body temperatures were assessed at the end of treatment period using a rectal probe. For the cold exposure experiment, mice were housed individually and transferred to a cold environment with an ambient temperature of 4° C. Temperature was measured every 15 min for 75 min and then brought to room temperature, then rectal temperature was measured for further 20 min with 10 min interval. After 10 weeks of treatment, blood was collected, from retro-orbital bleeding, for biochemical measurements. Then animals were euthanized and necropsied, the liver was excised immediately, weighed and taken to estimate liver triglyceride (TG). Different adipose depots were separated and weighed.
Animals were sacrificed after terminal measurement of fasting glycerol, free fatty acid, cholesterol, LDL levels.

The mark [6] stands for this setting: 5-20 mg/kg b.wt, once daily, po.
The mark [7] stands for this setting: 5-20 mg/kg b.wt, once daily, po, 10 weeks.
Setting [8] is: 5-20 mg/kg b.wt, once daily, po, OGTT after 9 weeks.

As to `CC1(C)CCC(C)(C)c2sc(N(CC3CC3)c3ccc(C(=O)O)cn3)nc21` [Compound 40, 6-[(Cyclopropylmethyl) (4,4,7,7-tetramethyl-4,5,6,7-tetrahydro-1,3-benzothiazol-2-yl)amino]pyridine-3-carboxylic acid], the “cell death (DNA fragmentation)” value in series [1] is on record as “increased cell death”. In series [2] (10 mg/kg b.wt, once daily, po), the Body weight result is “improvement was also observed”, the OGTT levels result is “significant improvement”, the “fasting TG levels” value was “improvement was also observed” and the fasting glucose entry is reported as “significant improvement”. Also, the muscle endurance entry in series [2] (DIO mice, tread mill test) is recorded as “significantly improves muscle endurance”. For the same compound, the HL-60 cells differentiation entry in series [3] (NBT reduction at 540 nm) is “significantly increased”. The “HL-60 differentiation in combination with ATRA” value in series [3] (together with ATRA) is “additive effect with ATRA”. Also, the “oxidative stress (ROS levels)” value in series [4] (PMA and LPS) was “reduce both oxidative stress”. For the same compound, in series [4] (PMA), the “inflammation (IL6 secretion and expression, expression of IL1b, COX2 and MCP1)” value is listed as “reduce inflammation”. For the same compound, in series [5] (setting [6]), the HOMA-IR entry is recorded as “improves HOMA-IR”, the “UCP1 expression levels in inguinal white adipose tissues” value is “significantly enhances”, the “circulating free fatty acid levels” value is recorded as “significant decrease” and the circulating glycerol levels result is listed as “significant decrease”. In series [5] (setting [6]), the ectopic fat accumulation result was “without increasing ectopic fat accumulation”, the “fasting TG” value is recorded as “significantly reduces fasting TG” and the fed cholesterol levels result is listed as “significantly reduces fed cholesterol levels”. In addition, in series [5] (setting [7]), the adipose depot weights entry is on record as “decrease in various adipose depot weights” and the body weight gain result is “significantly reduced body weight gain”. Moreover, in series [5] (setting [8]), the “glucose disposal (OGTT)” value is reported as “improves glucose disposal” and the “hyperinsulinemia (insulin levels)” value is recorded as “significantly reduces hyperinsulinemia”. The non-shivering thermogenesis entry in series [5] (cold exposure 4° C., rectal temperature) was “significantly enhances non-shivering thermogenesis”.
